Assay results from patent publication US5607691A, “Compositions and methods for enhanced drug delivery” (priority 1995, dated 1997).
Structures can show the parent of a compound that is named as a salt. Where two headings read alike, the source gives them in different places.

Assay: in vitro
Assay type: in vitro ADME, human
Conditions: human, serum
Source text: Table 4 lists the serum half-lives for several model compounds and two representative pharmaceutical agent-chemical modifier complexes using an in vitro assay system described in the Experimental section below. Of course, the serum half-lives will vary in vivo depending upon the age and health condition of the patient. Each complex comprises a model compound or a pharmaceutical agent, a spacer group, and a chemical modifier. Many of the model compounds utilize 4-nitrophenyl(ethanol, propanol, or cyclohexanol) or 4-nitrophenylethylamine as the "model" pharmaceutical agent. A more complete listing of serum half-lives may be found in the Experimental section below.
General procedure for serum hydrolysis of pharmaceutical agent-modifier complexes
Stock solutions (6 mM) of the pharmaceutical agent-modifier complexes were prepared in ethanol (by vortexing, sonication or warming at 37° C. if necessary). If required for solubility, a drop of dimethylsulfoxide, dimethylformamide or methanol may be added. (Acetonitrile cannot be used because it deactivates the serum enzymes.)
HPLC separation methods were established for each study by dilution of the above stock solution (6 μl) in acetonitrile (1 ml) to give a 36 μM solution. Samples (10 μl) were injected onto a Nucleosil 5C8 (250×4 mmID) and guard column (11×4 mm ID) and eluted with a mobile phase of approximately 65% HPLC grade water and 35% of a solution of 0.1% trifluoroacetic acid in acetonitrile, the exact proportions being adjusted in each case to give optimum separation and run times.
Freshly defrosted human serum (3 ml, Sigma) was warmed at 37° C. for five minutes and then 60 μl of the agent-modifier complex stock solution was added with vortexing. […] The aliquots were added to 800 μl of 2% zinc sulfate solution in a 1.5 ml disposable microcentrifuge tube, vortexed immediately and centrifuged at 14,000 RPM for 3 minutes. The supernatants (10 μl) were then injected onto the HPLC and peak areas were used to determine the % remaining. Serum blanks were prepared similarly by addition of serum to the zinc sulfate solution followed by centrifugation, and time=0 samples were also prepared by adding serum to the zinc sulfate solution followed by addition of the complex and separation by centrifugation. The time=0 samples, as well as the original stock solutions, were also used to study the stability of the complex in the absence of enzyme. Half-lives were calculated using the equation
by plotting time (x) vs. ln % remaining (y) to obtain the slope (m) and the y intercept (b).

[1] = Table 5, human serum, 37° C., read-out: Serum Half-life (converted)

Work on `CC1OC(OC2C(O)CC(OC3C(O)CC(OC4CCC5(C)C(CCC6C5CC(O)C5(C)C(C7=CC(=O)OC7)CCC65O)C4)OC3C)OC2C)CC(O)C1OC(=O)OCC[N+](C)(C)C` (stereo not drawn) [digoxin-4'"-(choline chloride) carbonate ester] yielded a half-life [1] of 0.0219 h.
For `CC(CCCC(=O)OC1C(O)CC(OC2C(O)CC(OC3C(O)CC(OC4CCC5(C)C(CCC6C5CC(O)C5(C)C(C7=CC(=O)OC7)CCC65O)C4)OC3C)OC2C)OC1C)OC(=O)CCC[N+](C)(C)C` (stereo not drawn) [digoxin-4'"-[5-(4-trimethylaminobutyroyloxy)-hexanoate] bromide salt], the half-life [1] was 14 h.
Work on `CC1OC(OC2C(O)CC(OC3C(O)CC(OC4CCC5(C)C(CCC6C5CC(O)C5(C)C(C7=CC(=O)OC7)CCC65O)C4)OC3C)OC2C)CC(O)C1OC(=O)C1CCC[N+]1(C)C` (stereo not drawn) [digoxin-4'"-stachydrine ester, chloride salt] yielded a half-life [1] of 0.085 h.
`CC1OC(OC2CCC3(C)C(CCC4C3CC(OC(=O)CCC[N+](C)(C)C)C3(C)C(C5=CC(=O)OC5)CCC43O)C2)CC(O)C1OC1CC(O)C(OC2CC3OC(=O)OC3C(C)O2)C(C)O1` (stereo not drawn) [digoxin-12-(4-trimethylaminobutyrate)-3'",4'"-cyclic carbonate, bromide salt] showed a half-life [1] of 96 h and a half-life (untitled table of digoxin derivatives (position/substituent), assay not given, read-out: Half Life (converted)) of 96 h.
For `CC1OC(OC2CCC3(C)C(CCC4C3CC(OC(=O)OC[N+](C)(C)C)C3(C)C(C5=CC(=O)OC5)CCC43O)C2)CC(O)C1OC1CC(O)C(OC2CC3OC(=O)OC3C(C)O2)C(C)O1` (stereo not drawn) [digoxin-12-(N,N,N-trimethylaminomethyl)-carbonate 3"',4'"-cyclic carbonate, chloride salt], the half-life [1] was 0.7 h.
In the case of `CC1OC(OC2CCC3(C)C(CCC4C3CC(OC(=O)OCC[N+](C)(C)C)C3(C)C(C5=CC(=O)OC5)CCC43O)C2)CC(O)C1OC1CC(O)C(OC2CC3OC(=O)OC3C(C)O2)C(C)O1` (stereo not drawn) [digoxin-12-(choline carbonate)-3'",4'"-cyclic carbonate, bromide salt], the half-life [1] is reported as 29 h.
With `C[C@H]1O[C@@H](O[C@H]2[C@@H](O)C[C@H](O[C@H]3[C@@H](O)C[C@H](O[C@H]4CC[C@@]5(C)[C@H](CC[C@@H]6[C@@H]5C[C@@H](OC(=O)OCCCCCCOC(=O)C[N+](C)(C)C)[C@]5(C)[C@@H](C7=CC(=O)OC7)CC[C@]65O)C4)O[C@@H]3C)O[C@@H]2C)C[C@@H]2OC(=O)O[C@@H]21` [digoxin-12-[1-(6-betainoyloxyhexyl)]carbonate-3"',4"'-cyclic carbonate, chloride salt] the half-life [1] was 470 h.
Work on `CC1OC(OC2CCC3(C)C(CCC4C3CC(OC(=O)CCCN(C)C)C3(C)C(C5=CC(=O)OC5)CCC43O)C2)CC(O)C1OC1CC(O)C(OC2CC3OC(=O)OC3C(C)O2)C(C)O1` (stereo not drawn) [digoxin-12-[4-(N,N-dimethylamino)butyrate]-3"',4'"-cyclic carbonate, hydrochloride salt] yielded a half-life [1] of 24 h.
With `CC(CCCC(=O)OC1CC2C(CCC3CC(OC4CC(O)C(OC5CC(O)C(OC6CC7OC(=O)OC7C(C)O6)C(C)O5)C(C)O4)CCC32C)C2(O)CCC(C3=CC(=O)OC3)C12C)OC(=O)CCC[N+](C)(C)C` (stereo not drawn) [digoxin-12-[5-(4-trimethylaminobutyroyloxy)-hexanoate]-3'",4'"-cyclic carbonate] the half-life [1] was 504 h.
`CC1OC(OC2CCC3(C)C(CCC4C3CC(OC(=O)CCCCC[N+](C)(C)C)C3(C)C(C5=CC(=O)OC5)CCC43O)C2)CC(O)C1OC1CC(O)C(OC2CC3OC(=O)OC3C(C)O2)C(C)O1` (stereo not drawn) [digoxin-12-[6-(N,N,N-trimethylamino)hexanoate]-3'"-4'"-cyclic carbonate, bromide salt] showed a half-life [1] of 336 h.
`CC1OC(OC2CCC3(C)C(CCC4C3CC(OC(=O)CCCCCN(C)C)C3(C)C(C5=CC(=O)OC5)CCC43O)C2)CC(O)C1OC1CC(O)C(OC2CC3OC(=O)OC3C(C)O2)C(C)O1` (stereo not drawn) [digoxin-12-[6-(N,N-dimethylamino)hexanoate]-3'",4'"-cyclic carbonate] showed a half-life [1] of 605 h.
Compound `C[C@H]1O[C@@H](O[C@H]2[C@@H](O)C[C@H](O[C@H]3[C@@H](O)C[C@H](O[C@H]4CC[C@@]5(C)[C@H](CC[C@@H]6[C@@H]5C[C@@H](OC(=O)OC[N+](C)(C)CCCCCC(=O)O)[C@]5(C)[C@@H](C7=CC(=O)OC7)CC[C@]65O)C4)O[C@@H]3C)O[C@@H]2C)C[C@@H]2OC(=O)O[C@@H]21` [digoxin-12-[N-(5-carboxypentyl)-N,N-dimethylaminomethyl carbonate]-3"',4"'-cyclic carbonate, bromide salt] has a half-life [1] of 0.8 h.
For `C[C@H]1O[C@@H](O[C@H]2[C@@H](O)C[C@H](O[C@H]3[C@@H](O)C[C@H](O[C@H]4CC[C@@]5(C)[C@H](CC[C@@H]6[C@@H]5C[C@@H](OC(=O)c5cccnc5)[C@]5(C)[C@@H](C7=CC(=O)OC7)CC[C@]65O)C4)O[C@@H]3C)O[C@@H]2C)C[C@@H]2OC(=O)O[C@@H]21` [digoxin-12-nicotinate ester-3"',4"'-cyclic carbonate], the half-life [1] was 331 h.
`C[C@H]1O[C@@H](O[C@H]2[C@@H](O)C[C@H](O[C@H]3[C@@H](O)C[C@H](O[C@H]4CC[C@@]5(C)[C@H](CC[C@@H]6[C@@H]5C[C@@H](OC(=O)[C@@H]5CCC[N+]5(C)C)[C@]5(C)[C@@H](C7=CC(=O)OC7)CC[C@]65O)C4)O[C@@H]3C)O[C@@H]2C)C[C@@H]2OC(=O)O[C@@H]21` [digoxin-12-stachydrine ester-3"',4"'-cyclic carbonate, chloride salt] gave a half-life [1] of 4.9 h.
`C[C@]12CCC(=O)C(OC(=O)OCC[N+](C)(C)C)=C1CC[C@@H]1[C@@H]2CC[C@]2(C)C(=O)CC[C@@H]12` [formestane-4-choline carbonate, bromide salt] showed a half-life [1] of 0.433 h.
For `CCCC[N+](C)(C)CCOC(=O)Cc1c(C)n(C(=O)c2ccc(Cl)cc2)c2ccc(OC)cc12` [indomethacin 2-(N-(1-butyl)-N,N-dimethylaminoethyl ester, bromide salt], the half-life [1] was 0.0106 h.
With `COc1ccc2c(c1)c(CC(=O)OCC[N+](C)(C)CCO)c(C)n2C(=O)c1ccc(Cl)cc1` [indomethacin 2-(N-(2-hydroxyethyl)-N,N-dimethyl) aminoethyl ester, bromide salt] the half-life [1] was 0.0163 h.
In the case of `COc1ccc2c(c1)c(CC(=O)OCCNC(=O)CCCCC[N+](C)(C)C)c(C)n2C(=O)c1ccc(Cl)cc1` [indomethacin 2-[N-(6'-N',N',N'-trimethylamino)-hexanamido]ethyl ester, iodide salt], the half-life [1] is reported as 22.6 h.
Work on `COc1ccc2c(c1)c(CC(=O)OCCNC(=O)CCCCCN(C)C)c(C)n2C(=O)c1ccc(Cl)cc1` [indomethacin 2-[N-(6'-N',N'-dimethylamino)hexanamido]ethyl ester] yielded a half-life [1] of 13.6 h.
With `COc1ccc2c(c1)c(CC(=O)OCCN(C)C(=O)CCCCC[N+](C)(C)C)c(C)n2C(=O)c1ccc(Cl)cc1` [indomethacin 2-[N-methyl-N-(6'-N',N',N'-trimethyl-amino)hexanamido]ethyl ester, iodide salt] the half-life [1] was 3.4 h.
In the case of `COc1ccc2c(c1)c(CC(=O)OCCN(C)C(=O)CCCCCN(C)C)c(C)n2C(=O)c1ccc(Cl)cc1` [indomethacin 2-[N-methyl-N-(6'-N',N'-dimethylamino)hexanamido]ethyl ester], the half-life [1] is reported as 0.225 h.
With `COc1ccc2c(c1)c(CC(=O)OCOC(=O)CCCCCNC(=O)C[C@H](C[N+](C)(C)C)OC(C)=O)c(C)n2C(=O)c1ccc(Cl)cc1` [indomethacin 6-(O-acetyl-L-carnitinamido)hexanoyloxymethyl ester, chloride salt] the half-life [1] was 0.5 h.
With `CCN(CC)C(=O)COC(=O)Cc1c(C)n(C(=O)c2ccc(Cl)cc2)c2ccc(OC)cc12` [indomethacin (N,N-diethylglycolamide) ester] the half-life [1] was 0.38 h.
